Common to all, as to assay: NCI anticancer screen, dose series, 48 h
Assay [1] deals with SNB-19.
The subject of assay [2] is UO-31.
The subject of assay [3] is UACC-62.
In assay [4] the test system is A549.
Assay [5] deals with BT-549.
Assay [6] deals with HOP-92.
Assay [7] relates to K562.
For assay [8], the system named is MDA-MB-231.
In assay [9] the test system is SR.
Assay [10] has as its system MCF7.
Assay [11] deals with MOLT-4.
For assay [12], the system named is RPMI-8226.
Assay [13] has as its system Malme-3M.
Assay [14] relates to U-251.
Assay [15] deals with COLO 205.
Assay [16] concerns 786-0.
The subject of assay [17] is EKVX.
In assay [18] the test system is NCI-H23.
The test system of assay [19] is SK-MEL-28.
Assay [20] has as its system HT-29.

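96-well plates; 48 h exposure; 5 concentrations. Endpoints by linear interpolation between flanking doses. Not reached: highest tested concentration assigned. GI50 = concentration required for 50% inhibition of growth.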 The source made the active and inactive calls. Cut-off read from the data, not from the text of the source: active = GI50 up to about 1.1 µM and inactive = higher. Bounds are passed on as bounds.

Take `Clc1ccc2nc3c(c(-c4ccccc4)nn3-c3ccccc3)c(-c3ccccc3)c2c1`: the GI50 in [1], in [2], in assay [3], in assay [4], in assay [5] and in assay [6] was > 100 µM (inactive) each time. Further, the GI50 in assay [7], in assay [8], in assay [9], in [10], in assay [11] and in assay [12] was > 100 µM (inactive) each time. Also, the GI50 in assay [13], in assay [14], in assay [15], in assay [16], in assay [17] and in assay [18] was > 100 µM (inactive) each time. The GI50 in assay [19] and in assay [20] was > 100 µM (inactive) each time.

As for `COc1nc2c(c(=O)n1C)NC(C(O)C(O)CO)C=N2` (stereo not given), the GI50 in assay [1], in assay [2], in assay [3], in assay [4], in assay [5] and in assay [6] was > 10 µM (inactive) in each case. Moreover, the GI50 in assay [7], in assay [8], in [9], in assay [10], in [11] and in assay [12] was > 10 µM (inactive) in each case. Besides, the GI50 in [13], in assay [14], in [15], in [16], in [17] and in assay [18] was > 10 µM (inactive) each time. Moreover, the GI50 in assay [19] and in assay [20] was > 10 µM (inactive) throughout.

In the case of `COC(=O)[C@@H]1C[C@@]2(C3C=CN(C(=O)C(F)(F)F)C=C3)c3ccccc3N(C(=O)C(F)(F)F)[C@H]2N1C(=O)OC`, the GI50 is 71.6 µM (inactive) in assay [1]; > 100 µM (inactive) in assay [2]; 32.1 µM (inactive) in [3]; > 100 µM (inactive) in assay [4]; 33.3 µM (inactive) in assay [5]; 34.1 µM (inactive) in assay [6]. Further, the GI50 in assay [7] is 47.8 µM (inactive); in [8] it was > 100 µM (inactive); in assay [9] it was 53.8 µM (inactive); in [10], 51.8 µM (inactive); in assay [11], 61.5 µM (inactive); in [12], 42.1 µM (inactive). Also, the GI50 in assay [13] is > 100 µM (inactive); in assay [14], 43 µM (inactive); in [15], > 100 µM (inactive); in assay [16] it was 54 µM (inactive); in assay [17] it was > 100 µM (inactive); in assay [18], > 100 µM (inactive). Further, the results for the GI50 in assay [19] and in assay [20] were 39.1 µM (inactive) and > 10 µM (inactive), respectively.

On to `C/C(=N\Nc1nc2ccccc2s1)c1ccncn1`, for which the GI50 in assay [1] is 3.02 µM (inactive); in assay [2], 0.387 µM (active); in assay [3], 1.44 µM (inactive); in assay [4], 2.22 µM (inactive); in assay [5], 4.15 µM (inactive); in [6], 0.817 µM (active). The GI50 was 0.973 µM (active) in assay [7]; 0.499 µM (active) in assay [8]; 0.641 µM (active) in assay [9]; 0.348 µM (active) in assay [10]; 0.145 µM (active) in [11]; 1 µM (active) in [12]. For the same molecule, the GI50 in [13] is 0.705 µM (active); in assay [14], 1.3 µM (inactive); in assay [15] it was 0.126 µM (active); in assay [16] it was 0.719 µM (active); in assay [17], 0.245 µM (active); in assay [18] it was 0.56 µM (active). Further, the GI50 in assay [19] is 2 µM (inactive); in assay [20] it was 0.0311 µM (active).

`Nc1ncnc2c(C3OC(CO)C(O)C3O)c[nH]c12` (stereo not given): the GI50 was 0.0131 µM (active) in assay [1]; 0.00426 µM (active) in assay [2]; 0.00718 µM (active) in assay [3]; 0.00399 µM (active) in [4]; 0.0138 µM (active) in [5]; < 0.015 µM (active) in assay [6]. The GI50 in assay [7] was 0.00238 µM (active); in [8] it was 0.0078 µM (active); in assay [9], 0.00298 µM (active); in assay [10], 0.0152 µM (active); in [11], 0.00336 µM (active); in [12], 0.00256 µM (active). Also, the GI50 in assay [13] was < 0.0135 µM (active); in [14] it was 0.00847 µM (active); in assay [15], 0.01 µM (active); in assay [16], 0.00317 µM (active); in [17], 0.0144 µM (active); in assay [18], 0.0131 µM (active). The figures for the GI50 in [19] and in assay [20] were < 0.0218 µM (active) and 0.0056 µM (active), respectively.

With `CC(C)(C)OC(=O)N1C(OP(=O)(Oc2ccccc2)Oc2ccccc2)=CSc2ccccc21`, the GI50 in assay [1] was 43.2 µM (inactive); in [2] it was 27.4 µM (inactive); in [3], 46.9 µM (inactive); in assay [4], 67.8 µM (inactive); in assay [5], 48.4 µM (inactive); in assay [6], 27.9 µM (inactive). Besides, the GI50 in assay [7] is 38.3 µM (inactive); in assay [8] it was 24 µM (inactive); in assay [9], 31.8 µM (inactive); in assay [10] it was 28.5 µM (inactive); in assay [11] it was 20.1 µM (inactive); in [12] it was 17.8 µM (inactive). Also, the GI50 was 27.7 µM (inactive) in assay [13]; 32.9 µM (inactive) in [14]; 20.4 µM (inactive) in assay [15]; 45.5 µM (inactive) in [16]; 31.8 µM (inactive) in assay [17]; 37.4 µM (inactive) in assay [18]. Further, the figures for the GI50 in [19] and in [20] were 26.5 µM (inactive) and 50.2 µM (inactive), respectively.

Take `c1ccc2c(c1)ccc1cc3cc(NCCCCNc4ccc5nc6c(ccc7ccccc76)cc5c4)ccc3nc12`: the GI50 in assay [1] was 0.352 µM (active); in assay [2] it was 1.21 µM (inactive); in assay [3], 1.67 µM (inactive); in [4], 1.51 µM (inactive); in assay [5], 2 µM (inactive); in assay [6], 1.58 µM (inactive). For the same molecule, the GI50 in [7] is 1.63 µM (inactive); in [8], 0.154 µM (active); in assay [9], 0.0179 µM (active); in assay [10], 0.262 µM (active); in assay [11] it was 0.184 µM (active); in [12] it was 0.323 µM (active). The GI50 in [13] was 1.55 µM (inactive); in assay [14], 0.199 µM (active); in assay [15] it was 1.69 µM (inactive); in assay [16], 0.291 µM (active); in assay [17], 2.03 µM (inactive); in [18] it was 2 µM (inactive). Also, the GI50 in assay [19] was 2.1 µM (inactive); in assay [20] it was 2.61 µM (inactive).

In the case of `O=C(Cc1ccccc1)N/N=C(/CCN1CCCC1)CC(c1ccccc1)c1c(O)c2ccccc2oc1=O` (stereo not given), the GI50 in [1] is > 100 µM (inactive); in assay [2], > 100 µM (inactive); in assay [3], 63.7 µM (inactive); in assay [4], > 100 µM (inactive); in [5] it was 83.4 µM (inactive); in assay [6], 31.6 µM (inactive). For the same molecule, the GI50 in assay [7] is > 100 µM (inactive); in assay [8], 26 µM (inactive); in assay [9], 21.4 µM (inactive); in assay [10] it was 22 µM (inactive); in [11], 46.6 µM (inactive); in [12], 39.7 µM (inactive). The GI50 is 57.4 µM (inactive) in assay [13]; > 100 µM (inactive) in assay [14]; 23.9 µM (inactive) in [15]; > 100 µM (inactive) in assay [16]; > 100 µM (inactive) in assay [17]; 55.7 µM (inactive) in assay [18]. Moreover, the GI50 in assay [19] was > 100 µM (inactive); in assay [20] it was 75.9 µM (inactive).

`O=C1OCC(c2ccc(Cl)cc2)=C1Cl`: the GI50 in [1] was > 100 µM (inactive); in assay [2], 18.1 µM (inactive); in [3], 18.7 µM (inactive); in assay [4], 35 µM (inactive); in assay [5], 29.2 µM (inactive); in assay [6] it was 31.9 µM (inactive). Further, the GI50 in assay [7] was 28.2 µM (inactive); in assay [8], 33.3 µM (inactive); in assay [9], 16.7 µM (inactive); in assay [10] it was 17.5 µM (inactive); in assay [11] it was 32.1 µM (inactive); in assay [12], 23.8 µM (inactive). For the same molecule, the GI50 in assay [13] is 15.6 µM (inactive); in assay [14], 35.8 µM (inactive); in assay [15], 24.4 µM (inactive); in assay [16], 17.7 µM (inactive); in [17], 28.8 µM (inactive); in assay [18] it was 19.1 µM (inactive). The GI50 in [19] was 49.9 µM (inactive); in [20] it was 44.7 µM (inactive).

In the case of `CC(C)N1[C@@H]2CCCC[C@H]2N(C(C)C)P1(=O)C(=O)/C=C/c1ccccc1`, the GI50 is 5.52 µM (inactive) in assay [1]; 1.64 µM (inactive) in assay [2]; 2.57 µM (inactive) in assay [3]; 3.35 µM (inactive) in assay [4]; 2.91 µM (inactive) in assay [5]; 1.76 µM (inactive) in [6]. For the same molecule, the GI50 in assay [7] is 2.52 µM (inactive); in [8], 2.98 µM (inactive); in [9], 2.83 µM (inactive); in assay [10], 3.5 µM (inactive); in assay [11] it was 2.7 µM (inactive); in [12] it was 2.49 µM (inactive). Besides, the GI50 in [13] is 1 µM (active); in assay [14], 4.08 µM (inactive); in [15] it was 1.91 µM (inactive); in assay [16], 1.81 µM (inactive); in assay [17] it was 3.54 µM (inactive); in assay [18], 2.16 µM (inactive). Further, the results for the GI50 in [19] and in assay [20] were 2.37 µM (inactive) and 2.79 µM (inactive), respectively.

These data come from ChEMBL document CHEMBL1201862, “PubChem BioAssay data set” (2004).
